# Tested on: Aedes aegypti
# Experiment: Arm-in-cage test on human volunteers
# Type: in vivo
# Details: arm treated with 20%, three human volunteers
# Description: The controlling effect, repellence & spatial repellence, according to the present invention is also determined according to an arm in the box method adapted from the WHO Guidelines for efficacy testing of mosquito repellents for human skin (WHO/CDS/NTD/WHOPES/2009.4). The readiness of 100 hungry female mosquitoes A. aegypti to a test substance is assessed by comparing the results of an untreated arm to a treated in when inserted into the cage (40×40×40 cm) for 30 seconds (negative control) three times. Further information is provided in the accompanying examples.
# The Arm in the box method was adapted from the WHO Guidelines for efficacy testing of mosquito repellents for human skin (WHO/CDS/NTD/WHOPES/2009.4). The readiness of 100 hungry female mosquitoes A. aegypti to probe is assessed by inserting the untreated arm of human volunteers into the cage (40×40×40cm) for 30 seconds (negative control) in order to determine probing activity. Then, the product is applied onto the skin of the forearm of the human volunteer (1 mL per 600 cm^2) and after 5 minutes, this arm is inserted into the cage and exposed for 3 minutes. The assay take place in temperature (27±2° C.) and humidity (80±10% RH) regulated room on three different human volunteers.
structure (smiles),measurement,value
"CCCc1cc(OC)c(OC)c(OC)c1 [compound 1975, 1,2,3-trimethoxy-5-propylbenzene]",reduction of the number of mosquito Aedes aegypti landings,99.4%±0.4%

# — patent US20250113823A1, “Arthropod Control Compositions” (priority 2022, published 2025)
